These are literature values, as cited in US9675585B1, “Extended release pharmaceutical formulations” (Ezra Pharma, priority 2016, dated 2017).

In general, Tmax refers to the time from dosing to the highest level.

`CCCCC(=O)N(Cc1ccc(-c2ccccc2-c2nnn[nH]2)cc1)[C@H](C(=O)O)C(C)C` [valsartan]: where the note is “following Cmax”, the “time after which plasma concentration reaches very low level” value was 10 to 12 h. The Tmax (oral administration) was 2 to 4 h.
